Where two headings read alike, the source gives them in different places.
Legend:
[1] = system: LNCaP tumor xenograft-bearing CB17-SCID mice; assay type: in vivo, mouse
Protocol: All animal experiments were conducted in accordance with general animal welfare regulations in Germany (German animal protection act, as amended on 18.05.2018, Art. 141 G v. 29.3.2017 I 626, approval no. 55.2–1-54-2532-71-13) and the institutional guidelines for the care and use of animals. To establish tumor xenografts, LNCaP cells (approx. 10^7 cells) were suspended in 200 μL of a 1/1 mixture (v/v) of DMEM F-12 and Matrigel (BD Biosciences, Heidelberg, Germany) and inoculated subcutaneously onto the right shoulder of 6–8 weeks old CB17-SCID mice (Charles River Laboratories, Sulzfeld, Germany). Mice were used for experiments when tumor size reached 5–10 mm in diameter (3–6 weeks after inoculation).
(§1) Approximately 2–10 MBq (0.20 nmol) of the ^177Lu-labeled PSMA inhibitors were injected into the tail vein of LNCaP tumor xenograft-bearing male CB17-SCID mice (n = 3 to 5). They were sacrificed by CO2 asphyxiation and cervical dislocation either 1 h or 24 h post injection (p.i.) (n = 3 for [^177Lu]Lu-5, -6 & -7 (proinhibitor compounds I-III), n = 4 for [^177Lu]Lu-10 (alkyne), n = 5 for [^177Lu]Lu-3 (carbamate I) and n = 5 for [^177Lu]Lu-11 (tetrazole)). Selected organs were removed, weighed and organ activities measured in a γ-counter.
as §1, with “2 - 10” for “2–10”, “(alkyne) and” for “(alkyne),”

PSMA = molecular target: T1, PSMA (Homo sapiens, UniProt Q04609); experiment: Competitive binding assay (IC50) on LNCaP cells with ([125I]I-BA)KuE as radioligand; conditions: ([125I]I-BA)KuE 0.2 nM, HBSS (1% BSA), 4 °C, 1 h
T1 construct: host or cells: LNCaP human prostate cancer cells
T1 sequence (Q04609 whole entry): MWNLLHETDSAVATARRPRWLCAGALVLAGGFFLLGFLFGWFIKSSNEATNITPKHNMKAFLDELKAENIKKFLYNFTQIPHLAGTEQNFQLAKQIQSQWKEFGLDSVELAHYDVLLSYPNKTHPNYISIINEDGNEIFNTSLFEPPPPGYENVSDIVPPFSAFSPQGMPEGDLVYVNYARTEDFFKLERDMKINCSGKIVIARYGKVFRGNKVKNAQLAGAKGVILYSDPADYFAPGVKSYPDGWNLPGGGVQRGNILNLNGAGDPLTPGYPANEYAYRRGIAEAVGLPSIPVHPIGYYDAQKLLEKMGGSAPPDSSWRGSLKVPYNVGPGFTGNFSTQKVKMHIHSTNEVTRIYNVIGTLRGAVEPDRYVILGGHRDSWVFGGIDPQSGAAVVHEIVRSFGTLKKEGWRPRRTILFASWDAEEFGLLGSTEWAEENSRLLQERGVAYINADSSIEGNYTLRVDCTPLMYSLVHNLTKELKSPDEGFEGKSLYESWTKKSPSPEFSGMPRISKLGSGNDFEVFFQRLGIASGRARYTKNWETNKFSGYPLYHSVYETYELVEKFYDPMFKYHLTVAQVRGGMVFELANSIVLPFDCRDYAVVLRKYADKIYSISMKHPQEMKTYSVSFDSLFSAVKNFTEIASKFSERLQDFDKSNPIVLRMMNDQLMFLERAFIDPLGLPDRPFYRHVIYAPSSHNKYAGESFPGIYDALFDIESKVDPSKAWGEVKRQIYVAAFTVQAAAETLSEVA
Protocol: (§2) PSMA-positive LNCaP cells (300265; Cell Lines Service, Eppelheim, Germany) were cultivated in Dulbecco’s modified Eagle medium/Nutrition Mixture F-12 with GlutaMAX (1/1, DMEM-F12, Thermo Fisher Scientific, Darmstadt, Germany) supplemented with 10% fetal bovine serum (Merck KGaA, Darmstadt, Germany) and kept at 37 °C in a humidified 5% CO2 atmosphere. One day (24 ± 2 h) prior to all in vitro experiments, the cultivated LNCaP cells were harvested using a mixture of trypsin/ethylenediamine-tetraacetic acid (0.05%/0.02%) in PBS (Thermo Fisher Scientific, Darmstadt, Germany) and centrifuged at 1300 rpm (ca. 190×g) for 3 min at room temperature (Heraeus Megafuge 16, Thermo Fisher Scientific, Darmstadt, Germany). After centrifugation, the supernatant was disposed and the cell pellet was resuspended in culture medium. Cells were counted with a Neubauer hemocytometer (Paul Marienfeld GmbH & Co. KG, Lauda-Königshofen, Germany) and seeded in 24-well plates.
(§3) Detailed information on affinity and internalization experiments is provided in the supporting information. […] IC50 values of (^natI-BA)KuE were determined on the same day for monitoring assay performance and to identify abnormal deviations in uptake and/or affinity. […] Data were corrected for non-specific binding and normalized to the specific internalization observed for the radioiodinated reference compound (n = 3).
The culture medium was removed and the cells were washed with 500 µL of Hank’s balanced salt solution (HBSS) (Merck KGaA, Darmstadt, Germany), containing 1% bovine serum albumin (BSA) (Merck KGaA, Darmstadt, Germany). Afterwards, 200 µL of HBSS (1% BSA) were added to each well and equilibrated on ice (4 °C) for 15 min. […] Experiments were carried out in triplicates for each concentration. The final concentrations of unlabeled ligand ranged from 10^-11 - 10^-5 M and the final radioligand concentration was 0.2 nM in all binding assays. The cells were incubated for one hour at 4 °C. Incubation was terminated by removal of the incubation medium. The cells were washed with 250 µL of HBSS (1% BSA) and the wash medium was combined with the respective supernatant. This fraction represents the amount of free radioligand. The cells were lysed by addition of 250 µL of 1 M aqueous NaOH. The lysate of each well was transferred to the respective vial as well as 250 µL of 1 M NaOH used for rinsing the well. Quantification of the amount of free and bound activity was performed in a γ-counter. The corresponding IC50 values were calculated using the GraphPad PRISM7 software.

LNCaP cells = experiment: Internalization study of 177Lu-labeled ligands in LNCaP cells, normalized to ([125I]I-BA)KuE; assay type: cell-based, human; conditions: 1 h, 37 °C, 1.0 nM 177Lu-compound, normalized to ([125I]I-BA)KuE
Protocol: as §2, §3
The culture medium was removed and the cells were washed with 500 µL of DMEM-F12 containing 5% BSA. Afterwards, 200 µL of DMEM-F12 (5% BSA) were added to each well and left to equilibrate at 37 °C for 15 min. 25 µL of DMEM-F12 (5% BSA) were added to each well, followed by the addition of 25 µL of the respective ^177Lu-labeled ligand (10.0 nM in DMEM-F12 (5% BSA)). For blocking PSMA-specific binding and uptake, 25 µL of 2-(phosphonomethyl)pentane-1,5-dioic acid (2-PMPA) (100 µM in DMEM (5% BSA)) instead of DMEM-F12 (5% BSA) were added prior to radiotracer addition. […] Each experiment (control and blockade) was performed in triplicate. […] Incubation was terminated by placing the plate on ice (4 °C, 1 min) and removal of the incubation medium. The cells were washed with 250 µL of ice-cold PBS and the wash medium was combined with the respective supernatant. This fraction represents the amount of free radioligand. 250 µL of ice-cold 2-PMPA (10 µM in PBS) were added and the cells were incubated for 10 min at 4 °C. Afterwards, the cells were rinsed again with 250 µL of ice-cold PBS and the wash medium was combined with the respective supernatant. This fraction represents the amount of cell surface-bound ligand. In the last step, the cells were lysed by addition of 250 µL of 1 M aqueous NaOH. After 20 min, the lysate of each well was transferred to the respective vial as well as 250 µL of 1 M NaOH used for rinsing the well. This fraction represents the amount of internalized radioligand. Quantification of the amount of free, cell surface-bound and internalized activity was performed in a γ-counter.

CC(C)(C)[Si](F)(c1ccc(C(=O)NC[C@@H](NC(=O)CN2CCN(CC(=O)[O-])CCN(CC(=O)[O-])CCN(CC(=O)[O-])CC2)C(=O)N[C@H](CCCCNC(=O)CCC(=O)NCCC[C@@H](NC(=O)CC[C@H](NC(=O)O[C@@H](CCC(=O)O)C(=O)O)C(=O)O)C(=O)O)C(=O)O)cc1)C(C)(C)C.[Lu+3] [^natLu/[^177Lu]Lu-3]
Biodistribution Adrenals ([1]; 1 h p.i.): 1.46 ± 0.70 % ID/g
Biodistribution Blood ([1]; 1 h p.i.): 0.97 ± 0.18 % ID/g
Biodistribution Bone ([1]; 1 h p.i.): 0.18 ± 0.02 % ID/g
Biodistribution Heart ([1]; 1 h p.i.): 0.36 ± 0.04 % ID/g
Biodistribution Intestine ([1]; 1 h p.i.): 0.36 ± 0.17 % ID/g
Biodistribution Kidneys ([1]; 1 h p.i.): 61.8 ± 25.9 % ID/g
Biodistribution Liver ([1]; 1 h p.i.): 0.87 ± 0.28 % ID/g
Biodistribution Lung ([1]; 1 h p.i.): 2.88 ± 2.96 % ID/g
Biodistribution Muscle ([1]; 1 h p.i.): 0.13 ± 0.04 % ID/g
Biodistribution Pancreas ([1]; 1 h p.i.): 0.25 ± 0.06 % ID/g
Biodistribution Parotid gland ([1]; 1 h p.i.): 0.62 ± 0.20 % ID/g
Biodistribution Spleen ([1]; 1 h p.i.): 2.51 ± 0.95 % ID/g
Biodistribution Stomach ([1]; 1 h p.i.): 0.30 ± 0.09 % ID/g
Biodistribution Submandibular gland ([1]; 1 h p.i.): 0.37 ± 0.08 % ID/g
Biodistribution Tumor ([1]; 1 h p.i.): 5.31 ± 0.94 % ID/g
Ratio Tumor-to-blood ([1]; 1 h p.i.): 5.57 ± 1.18
Ratio Tumor-to-kidney ([1]; 1 h p.i.): 0.09 ± 0.03
Ratio Tumor-to-liver ([1]; 1 h p.i.): 6.61 ± 2.19
Ratio Tumor-to-muscle ([1]; 1 h p.i.): 44.1 ± 9.0
Ratio Tumor-to-parotid gland ([1]; 1 h p.i.): 9.09 ± 3.13
Ratio Tumor-to-submandibular gland ([1]; 1 h p.i.): 14.7 ± 3.5
Biodistribution Adrenals ([1]; 24 h p.i.): 0.04 ± 0.01 % ID/g
Biodistribution Bone ([1]; 24 h p.i.): 0.02 ± 0.01 % ID/g
Biodistribution Heart ([1]; 24 h p.i.): 0.02 ± 0.01 % ID/g
Biodistribution Intestine ([1]; 24 h p.i.): 0.12 ± 0.06 % ID/g
Biodistribution Kidneys ([1]; 24 h p.i.): 0.31 ± 0.05 % ID/g
Biodistribution Liver ([1]; 24 h p.i.): 0.13 ± 0.05 % ID/g
Biodistribution Lung ([1]; 24 h p.i.): 0.03 ± 0.01 % ID/g
Biodistribution Muscle ([1]; 24 h p.i.): 0.01 ± 0.01 % ID/g
Biodistribution Pancreas ([1]; 24 h p.i.): 0.02 ± 0.01 % ID/g
Biodistribution Parotid gland ([1]; 24 h p.i.): 0.04 ± 0.02 % ID/g
Biodistribution Spleen ([1]; 24 h p.i.): 0.09 ± 0.01 % ID/g
Biodistribution Stomach ([1]; 24 h p.i.): 0.06 ± 0.04 % ID/g
Biodistribution Submandibular gland ([1]; 24 h p.i.): 0.03 ± 0.01 % ID/g
Biodistribution Tumor ([1]; 24 h p.i.): 1.20 ± 0.55 % ID/g
Ratio Tumor-to-blood ([1]; 24 h p.i.): 947 ± 652
Ratio Tumor-to-kidney ([1]; 24 h p.i.): 3.80 ± 1.36
Ratio Tumor-to-liver ([1]; 24 h p.i.): 8.94 ± 2.94
Ratio Tumor-to-muscle ([1]; 24 h p.i.): 127 ± 92
Ratio Tumor-to-parotid gland ([1]; 24 h p.i.): 31.8 ± 9.3
Ratio Tumor-to-submandibular gland ([1]; 24 h p.i.): 34.5 ± 9.2
factor by which tumor-to-submandibular gland and tumor-to-parotid gland ratios are lower than for [177Lu]Lu-1 ([1]; 24 h p.i.): 8
IC50 (PSMA): 7.1 ± 0.7 nM
%Internalization compared to the reference (LNCaP cells): 1 h: 67.8 ± 0.5%

CCCCC[C@H](NC(=O)N[C@@H](CCC(=O)N[C@H](CCCNC(=O)CCC(=O)NCCCC[C@@H](NC(=O)[C@@H](CNC(=O)c1ccc([Si](F)(C(C)(C)C)C(C)(C)C)cc1)NC(=O)CN1CCN(CC(=O)[O-])CCN(CC(=O)[O-])CCN(CC(=O)[O-])CC1)C(=O)O)C(=O)O)C(=O)O)C(=O)O.[Lu+3] [^natLu-8]
IC50 (PSMA): > 2000 nM

Reference: publication PMC7910394, “Design of PSMA ligands with modifications at the inhibitor part: an approach to reduce the salivary gland uptake of radiolabeled PSMA inhibitors?” (EJNMMI Radiopharmacy and Chemistry, 2021)
